How the values were obtained:
[1] = target: cDNA-expressed human hepatic CYP3A4 (Homo sapiens (Human), UniProt P08684); test: Measurement of CYP (IC50 of P450 CYP3A4), BFC substrate; type: in vitro ADME; conditions: 20 minutes
In short: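 cDNA-expressed human CYP3A4 supersomes in 0.1M potassium phosphate pH 7.4 with 8.3 mM MgCl2, 1.67 mM EDTA and 0.25 mM NADPH; compounds in acetonitrile (<1% final). Reaction started with 30 µM BFC, 20 min at 37. 7-Hydroxy-4-trifluoromethyl-coumarin read by fluorescence (ex 409/em 530 nm).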

[2] = system: MV-4-11 (human, Acute Myeloid Leukemia cell line) cells; test: Cell growth inhibition assay, GI50 of MV-4-11; type: cell-based; conditions: Homo sapiens, MV4-11, 72 h, MV-4-11 cells
In short: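 GI50 derived from 490 nm absorbance using CellTiter 96 Aqueous One reagent, with compound-free medium providing the background. Human AML MV-4-11 cells, seeded at 5×10^4 per well in IMDM/10% FBS, incubated 72 h at 37 °C with duplicate serial dilutions of test compound.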

[3] = MLM, hepatic metabolic stability; type: in vitro ADME; conditions: mouse hepatic microsome, amount at 30 minutes compared with 0 minutes
Protocol: For the sake of retaining efficacy of novel drugs and preventing side-effects, hepatic metabolic stability is regarded as very important. Hepatic metabolic stability is typically determined using microsome or S9. In the present test, a microsome having CYP450 as a main component, which plays a great role in metabolism, was used to evaluate the metabolic stability.
This assay was performed in a 200 l volume in a 13 ml glass tube using mouse hepatic microsome whose activity was measured.
The compounds of Examples 1 to 5 were dissolved in DMSO (dimethyl sulfoxide) to prepare a 25 mM stock solution, which was then diluted with 50% acetonitrile and used in the test. A potassium phosphate buffer (pH 7.4, final concentration 0.1M), MgCl2 (final concentration 0.1M), a diluted inventive compound stock solution (final concentration 1 mM), and a mouse microsome (final concentration 5 mg/ml) were added to the glass tube. The reaction was initiated by the addition of a cofactor NADPH (final concentration 12.5 mM) after pre-incubation at 37 for 3 minutes. The reaction was carried out at 37 for 10 minutes and 30 minutes, and then terminated with 1000 μl of acetonitrile, and the remaining inventive compound was extracted. The centrifugation was conducted at 3000 rpm for 10 minutes, after which the supernatant was dried and dissolved again in 150 μl of 50% acetonitrile and quantitatively analyzed by HPLC. 0 minutes and 30 minutes after reaction, the amounts of the compounds of the present invention were compared thus evaluating the extent of metabolic stability.

Sequence of cDNA-expressed human hepatic CYP3A4 (P08684 whole entry): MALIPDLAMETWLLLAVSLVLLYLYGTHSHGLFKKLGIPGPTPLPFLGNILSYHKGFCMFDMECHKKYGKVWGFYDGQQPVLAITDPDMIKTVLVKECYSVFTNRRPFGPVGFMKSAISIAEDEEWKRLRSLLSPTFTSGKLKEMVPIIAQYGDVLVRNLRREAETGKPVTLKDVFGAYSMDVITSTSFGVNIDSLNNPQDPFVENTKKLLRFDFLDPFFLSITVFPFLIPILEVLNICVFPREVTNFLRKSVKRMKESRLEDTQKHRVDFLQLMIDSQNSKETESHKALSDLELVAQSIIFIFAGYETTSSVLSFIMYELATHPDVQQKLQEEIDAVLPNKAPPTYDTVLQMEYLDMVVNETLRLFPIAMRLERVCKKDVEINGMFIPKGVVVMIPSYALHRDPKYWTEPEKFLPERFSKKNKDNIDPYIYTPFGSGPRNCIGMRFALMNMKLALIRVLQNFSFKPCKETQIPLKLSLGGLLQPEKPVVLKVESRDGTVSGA

Compound | IC50 [1] | GI50 [2] | MLM (%) [3]
C=CCN1CC(=O)N2C(CN(Cc3cccc4c(C(=O)Nc5ccc(N6CCOCC6)nc5)cn(C)c34)C(=O)[C@@H]2Cc2ccc(O)cc2)N1C(=O)NCc1ccccc1 (stereo partly drawn) [Compound G-36] | 21100 nM | 1.3 nM | 36%
C=CCN1CC(=O)N2[C@@H](Cc3ccc(O)cc3)C(=O)N(Cc3cccc4c(-c5ccc(C(=O)Nc6ccc(N7CCN(C(C)=O)CC7)cc6)cc5)cn(C)c34)C[C@@H]2N1C(=O)NCc1ccccc1 [Compound D-10] | > 25000 nM | 1.3 nM | 88%
C=CCN1CC(=O)N2[C@@H](Cc3ccc(O)cc3)C(=O)N(Cc3cccc4c(-c5ccc(NC(=O)Nc6ccc(OC)nc6)cc5)cn(C)c34)C[C@@H]2N1C(=O)NCc1ccccc1 [Compound D-77] | > 25000 nM | 6.5 nM | 65.4%
C=CCN1CC(=O)N2[C@@H](Cc3ccc(O)cc3)C(=O)N(Cc3cccc4c(-c5ccc(NC(=O)Nc6ccc(OC)nc6)cc5)cn(C)c34)C[C@@H]2N1C(=O)NCc1ccccc1 [Compound B, (6S,9aS)-2-allyl-N-benzyl-6-(4-hydroxybenzyl)-8-((3-(4-(3-(6-methoxypyridin-3-yl)ureido)phenyl)-1-methyl-1H-indol-7-yl)methyl)-4,7-dioxooctahydro-1H-pyrazino[2,1-c][1,2,4]-triazine-1-carboxamide] | > 25000 nM | 6.5 nM | 65%
C=CCN1CC(=O)N2[C@@H](Cc3ccc(O)cc3)C(=O)N(Cc3cccc4c(-c5ccc(C(=O)NN6CCN(C)CC6)cc5)cn(C)c34)C[C@@H]2N1C(=O)NCc1ccccc1 [Compound D-45] | 2510 nM | 1.9 nM | 49.4%
C=CCN1CC(=O)N2[C@@H](Cc3ccc(O)cc3)C(=O)N(Cc3cccc4c(C(=O)N5CCN(CCCN(C)C)CC5)cn(C)c34)C[C@@H]2N1C(=O)NCc1ccccc1 [Compound E-13] | > 25000 nM | – | 89.1%
C=CCN1CC(=O)N2[C@@H](Cc3ccc(O)cc3)C(=O)N(Cc3cccc4c(C(=O)Nc5ccc(N6CCCCC6)nc5)cn(C)c34)C[C@@H]2N1C(=O)NCc1ccccc1 [Compound G-35] | 12200 nM | 1.4 nM | 34.9%
C=CCN1CC(=O)N2[C@@H](Cc3ccc(O)cc3)C(=O)N(Cc3cccc4c(-c5ccc(NC(=O)Nc6ccccc6)nc5)cn(C)c34)C[C@@H]2N1C(=O)NCc1ccccc1 [Compound C, (6S,9aS)-2-allyl-N-benzyl-6-(4-hydroxybenzyl)-8-((1-methyl-3-(6-(3-phenylureido)pyridine-3-yl)-1H-indol-7-yl)methyl)-4,7-dioxooctahydro-1H-pyrazino[2,1-c][1,2,4]-triazine-1-carboxamide] | > 25000 nM | 9.5 nM | 64%
C=CCN1CC(=O)N2[C@@H](Cc3ccc(O)cc3)C(=O)N(Cc3cccc4c(-c5ccc(NC(=O)c6ccc(N)nc6)cc5)cn(C)c34)C[C@@H]2N1C(=O)NCc1ccccc1 [Compound D-69] | > 25000 nM | 1.1 nM | 65%
C=CCN1CC(=O)N2[C@@H](Cc3ccc(O)cc3)C(=O)N(Cc3cccc4c(-c5ccc(NC(=O)Nc6ccccc6)nc5)cn(C)c34)C[C@@H]2N1C(=O)NCc1ccccc1 [Compound D-85] | > 25000 nM | 9.5 nM | 64.3%
C=CCN1CC(=O)N2C(Cc3ccc(O)cc3)C(=O)N(Cc3cccc4c(C(=O)Nc5ccc(N6CCN(c7ccccc7OC)CC6)nc5)cn(C)c34)CC2N1C(=O)NCc1ccccc1 (stereo not drawn) [Compound G-59] | > 25000 nM | 4.9 nM | 61.9%
C=CCN1CC(=O)N2[C@@H](Cc3ccc(O)cc3)C(=O)N(Cc3cccc4c(C(=O)NCc5ccc(N(C)C)nc5)cn(C)c34)C[C@@H]2N1C(=O)NCc1ccccc1 [Compound F-47] | 2050 nM | 6.9 nM | –
C=CCN1CC(=O)N2[C@@H](Cc3ccc(O)cc3)C(=O)N(Cc3cccc4c(C(=O)NC5CCN(C(=O)c6ccc(N(C)C)cc6)CC5)cn(C)c34)C[C@@H]2N1C(=O)NCc1ccccc1 [Compound F-66] | 6150 nM | 17.5 nM | –
C=CCN1CC(=O)N2[C@@H](Cc3ccc(O)cc3)C(=O)N(Cc3cccc4c(C(=O)Nc5ccc(OCCN(C)C)nc5)cn(C)c34)C[C@@H]2N1C(=O)NCc1ccccc1 [Compound G-12] | 10100 nM | 9.9 nM | –
C=CCN1CC(=O)N2[C@@H](Cc3ccc(O)cc3)C(=O)N(Cc3cccc4c(C(=O)NCCCC(=O)O)cn(C)c34)C[C@@H]2N1C(=O)NCc1ccccc1 [Compound F-24] | > 25000 nM | – | 84.2%

The remaining lines, values ahead:

IC50 [1] | GI50 [2] | MLM (%) [3] | Compound
> 25000 nM | 11.2 nM | 56.9% | C=CCN1CC(=O)N2[C@@H](Cc3ccc(O)cc3)C(=O)N(Cc3cccc4c(-c5ccc(NC(=O)NC6CCCCC6)cc5)cn(C)c34)C[C@@H]2N1C(=O)NCc1ccccc1 [Compound D-74]
> 25000 nM | – | 73.4% | C=CCN1CC(=O)N2[C@@H](Cc3ccc(O)cc3)C(=O)N(Cc3cccc4c(C(=O)N5CCC(N6CCN(C)CC6)CC5)cn(C)c34)C[C@@H]2N1C(=O)NCc1ccccc1 [Compound E-19]
> 25000 nM | – | 67.2% | C=CCN1CC(=O)N2[C@@H](Cc3ccc(O)cc3)C(=O)N(Cc3cccc4c(C(=O)N5CC(N6CCN(C)CC6)C5)cn(C)c34)C[C@@H]2N1C(=O)NCc1ccccc1 [Compound E-71]
> 25000 nM | – | 74% | C=CCN1CC(=O)N2[C@@H](Cc3ccc(O)cc3)C(=O)N(Cc3cccc4c(-c5ccc(NC(=S)NC(=O)c6ccccc6)nc5)cn(C)c34)C[C@@H]2N1C(=O)NCc1ccccc1 [Compound H-5]
23700 nM | – | 85.1% | C=CCN1CC(=O)N2C(Cc3ccc(O)cc3)C(=O)N(Cc3cccc4c(C(=O)Nc5ccc(N6CCN(c7ccc(C(F)(F)F)cc7)CC6)nc5)cn(C)c34)CC2N1C(=O)NCc1ccccc1 (stereo not drawn) [Compound G-58]
8170 nM | – | 73.8% | C=CCN1CC(=O)N2[C@@H](Cc3ccc(O)cc3)C(=O)N(Cc3cccc4c(C(=O)N5CCN(CC6CCNCC6)CC5)cn(C)c34)C[C@@H]2N1C(=O)NCc1ccccc1 [Compound E-23]
> 25000 nM | 14.4 nM | 73.4% | C=CCN1CC(=O)N2[C@@H](Cc3ccc(O)cc3)C(=O)N(Cc3cccc4c(-c5ccc(NC(=O)Nc6ccccc6)cc5)cn(C)c34)C[C@@H]2N1C(=O)NCc1ccccc1 [Compound D-73]
> 25000 nM | 15 nM | 66.8% | C=CCN1CC(=O)N2[C@@H](Cc3ccc(O)cc3)C(=O)N(Cc3cccc4c(-c5ccc(NC(=S)NC(=O)OCC)nc5)cn(C)c34)C[C@@H]2N1C(=O)NCc1ccccc1 [Compound H-4]
> 25000 nM | – | 58.5% | C=CCN1CC(=O)N2[C@@H](Cc3ccc(O)cc3)C(=O)N(Cc3cccc4c(C(=O)N5CCC(NC(=O)c6ccc(N(C)C)cc6)CC5)cn(C)c34)C[C@@H]2N1C(=O)NCc1ccccc1 [Compound E-59]
> 25000 nM | 1.5 nM | 107% | C=CCN1CC(=O)N2[C@@H](Cc3ccc(O)cc3)C(=O)N(Cc3cccc4c(-c5ccc(C(=O)NC6CCC(NC(=O)OC(C)(C)C)CC6)cc5)cn(C)c34)C[C@@H]2N1C(=O)NCc1ccccc1 (stereo partly drawn) [Compound D-31]
20400 nM | 16.1 nM | 68.5% | C=CCN1CC(=O)N2[C@@H](Cc3ccc(O)cc3)C(=O)N(Cc3cccc4c(-c5ccc(NC(=O)NCc6ccccc6)nc5)cn(C)c34)C[C@@H]2N1C(=O)NCc1ccccc1 [Compound D-93]
21500 nM | 6.5 nM | 52.8% | C=CCN1CC(=O)N2C(Cc3ccc(O)cc3)C(=O)N(Cc3cccc4c(C(=O)Nc5ccc(N6CCN(Cc7ccc(OC)cc7)CC6)nc5)cn(C)c34)CC2N1C(=O)NCc1ccccc1 (stereo not drawn) [Compound G-60]
3900 nM | 18.4 nM | – | C=CCN1CC(=O)N2[C@@H](Cc3ccc(O)cc3)C(=O)N(Cc3cccc4c(C(=O)N5CCOCC5)cn(C)c34)C[C@@H]2N1C(=O)NCc1ccccc1 [Compound E-3]
4100 nM | 1.4 nM | – | C=CCN1CC(=O)N2[C@@H](Cc3ccc(O)cc3)C(=O)N(Cc3cccc4c(C(=O)Nc5ccc(N6CC(N7CCN(C)CC7)C6)nc5)cn(C)c34)C[C@@H]2N1C(=O)NCc1ccccc1 [Compound G-62]
7100 nM | 13 nM | – | C=CCN1CC(=O)N2C(Cc3ccc(O)cc3)C(=O)N(Cc3cccc4c(C(=O)Nc5ccc(NC6CC(C)(C)N(C)C(C)(C)C6)nc5)cn(C)c34)CC2N1C(=O)NCc1ccccc1 (stereo not drawn) [Compound G-52]
6120 nM | 1.3 nM | – | C=CCN1CC(=O)N2C(CN(Cc3cccc4c(C(=O)Nc5ccc(N6CCN(C(C)C)CC6)nc5)cn(C)c34)C(=O)[C@@H]2Cc2ccc(O)cc2)N1C(=O)NCc1ccccc1 (stereo partly drawn) [Compound G-46]
